# Reference: US20110301169A1, “Therapies for Treating Cancer Using Combinations of COX-2 Inhibitors and Antimetabolites” (priority 2007, published 2011)
# Experiments:
# HER2 [ErbB2] = HER2 [ErbB2] (Homo sapiens, UniProt P04626); details: cited from earlier work
# [1] = tested on: human breast cancer cells (SK-BR-3); assay: SK-BR-3 model, tumor volume; format: in vivo, nude mice; details: COX-2 inhibitor in the diet, trastuzumab intravenously
# Experimental: Mice are injected subcutaneously in the left paw (1×10^6 tumor cells suspended in 30% Matrigel) and tumor volume is evaluated using a phlethysmometer twice a week for 30-60 days. Implantation of human breast cancer cells (SK-BR-3) into nude mice produces tumors that will reach 0.6-2 ml between 30-50 days. […] The data is expressed as the mean+/−SEM. Student's and Mann-Whitney tests are used to assess differences between means using the InStat software package.
# The efficacy of both agents are determined by measuring tumor volume.
# B. In a second assay, mice injected with SK-BR-3 cancer cells are then treated with 5-FU on days 12 through 15. […] The efficacy of both agents are determined by measuring tumor volume.
# [2] = Oral pharmacokinetics in dogs; format: in vivo; details: dog, plasma, 5 mg/kg, read-out: elimination half life (t1/2)
# Experimental: (§1) Peak plasma concentrations were achieved between 1 and 3 hours after a dose of 5 mg/kg.
# [3] = Oral pharmacokinetics in monkeys; format: in vivo; details: monkey, plasma, 5 mg/kg, read-out: elimination half life (t1/2) (converted)
# Experimental: as §1
# [4] = human, in vivo
# clinical = details: human, in vivo
# Experimental: as §1
# [5] = Oral pharmacokinetics in rodents; format: in vivo, mice, rats
# Experimental: as §1
# [6] = tested on: MX1 (ER−, erbB2−) breast carcinoma; assay: MX1 human breast carcinoma xenograft, tumor growth delay (Example 11); format: in vivo, female athymic nude mice; details: alone
# Experimental: The compound was administered orally on a continuous daily regimen in female athymic nude mice bearing established sc-implanted xenografts.
# BT474 tumor = assay: BT474 model, tumor growth delay (Example 9); format: in vivo, Female SCID mice; details: Groups 3, 4: 30 mg/kg, po, qd to end
# Experimental: Female SCID mice were injected subcutaneously in the flank (1 mm^3 BT474 tumor) and tumor volume was evaluated using a caliper twice a week for up to 90 days, longer for responders. Upon reaching an average tumor size of 100-200 mg the treatment was begun. […] The endpoint for the study was when tumor volume reached 0.75 gins or 90 days, which ever came first.
# [7] = third assay (C): 5-FU i.p. 50 mg/kg on days 14 through 17
# Sequence of HER2 [ErbB2] (P04626 23-1255): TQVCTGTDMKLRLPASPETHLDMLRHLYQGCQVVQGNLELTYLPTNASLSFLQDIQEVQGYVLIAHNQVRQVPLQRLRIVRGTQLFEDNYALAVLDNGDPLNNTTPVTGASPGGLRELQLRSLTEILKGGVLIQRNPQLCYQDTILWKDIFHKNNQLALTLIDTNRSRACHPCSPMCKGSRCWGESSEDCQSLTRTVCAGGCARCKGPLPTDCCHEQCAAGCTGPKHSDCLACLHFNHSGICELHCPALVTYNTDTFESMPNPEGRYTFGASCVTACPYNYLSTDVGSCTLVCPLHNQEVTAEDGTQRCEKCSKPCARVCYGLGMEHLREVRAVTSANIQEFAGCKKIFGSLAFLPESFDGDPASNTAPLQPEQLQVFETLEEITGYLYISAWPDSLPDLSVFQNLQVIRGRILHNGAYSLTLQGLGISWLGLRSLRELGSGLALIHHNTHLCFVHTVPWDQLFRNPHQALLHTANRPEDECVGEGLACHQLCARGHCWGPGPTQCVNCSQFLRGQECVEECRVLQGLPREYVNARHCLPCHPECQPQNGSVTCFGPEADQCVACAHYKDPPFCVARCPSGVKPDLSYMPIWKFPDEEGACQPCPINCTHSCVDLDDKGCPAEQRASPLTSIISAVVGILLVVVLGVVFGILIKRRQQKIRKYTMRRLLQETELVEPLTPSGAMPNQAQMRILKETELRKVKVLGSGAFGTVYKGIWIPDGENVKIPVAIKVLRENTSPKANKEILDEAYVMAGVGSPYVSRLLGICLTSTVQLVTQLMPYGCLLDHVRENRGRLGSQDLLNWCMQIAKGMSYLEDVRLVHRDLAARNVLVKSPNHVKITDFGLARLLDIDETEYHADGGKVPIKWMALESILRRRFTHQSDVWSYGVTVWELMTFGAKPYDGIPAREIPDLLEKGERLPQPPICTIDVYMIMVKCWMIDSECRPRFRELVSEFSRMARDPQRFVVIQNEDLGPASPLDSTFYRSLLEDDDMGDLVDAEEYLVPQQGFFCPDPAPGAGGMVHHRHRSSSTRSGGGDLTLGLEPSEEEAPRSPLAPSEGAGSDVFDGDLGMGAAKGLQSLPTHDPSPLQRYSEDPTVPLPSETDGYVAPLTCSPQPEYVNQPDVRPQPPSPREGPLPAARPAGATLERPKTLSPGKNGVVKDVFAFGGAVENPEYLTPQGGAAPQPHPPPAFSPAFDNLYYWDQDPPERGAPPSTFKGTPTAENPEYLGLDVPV
structure (smiles),measurement,setting,value
"COCC(=O)NC/C=C/c1ccc2ncnc(Nc3ccc(Oc4ccc(C)nc4)c(C)c3)c2c1 [CP-724,714]",Ki,HER2 [ErbB2],7 nM
Cc1onc(-c2ccccc2)c1-c1ccc(S(N)(=O)=O)cc1 [valdecoxib],reduction in tumor volume,[1]; [7],69%
CCOc1ccc(-c2cc(C)cn2-c2ccc(S(N)(=O)=O)cc2)cc1,half-life,[2],4 to 5 h
same,half-life,[3],~2 h
same,gastric or duodenal toxicity,[4],no increase in gastric or duodenal toxicity compared to placebo
same,half-life,clinical,15 to 18 h
same,half-life,"[5]; mouse, rat, plasma, po, 5 mg/kg, rodents, read-out: elimination half life (t1/2)",4 to 5 h
same,Oral availability,"[5]; rodent, compared with dogs and monkeys",greatest in rodent
O=c1[nH]cc(F)c(=O)[nH]1 [5-FU],reduction in tumor volume,[1]; second assay (B): 5-FU i.p. 50 mg/kg on days 12-15,61%
same,reduction in tumor volume,[1]; [7],35%
Nc1nc2[nH]cc(CCc3ccc(C(=O)N[C@@H](CCC(=O)[O-])C(=O)[O-])cc3)c2c(=O)[nH]1.[Na+].[Na+] [pemetrexed],TGD (in words),[6],no TGD
Cc1ccc(-c2cc(C(F)(F)F)nn2-c2ccc(S(N)(=O)=O)cc2)cc1 [celecoxib],% tumor growth delay,BT474 tumor,−28%
same,Median Total Time to Endpoint,BT474 tumor,27.5 days
same,Difference from control,BT474 tumor; difference in median time to endpoint,−10.7
